Measured values reported in the RepoRT retention time repository.

Experiment: HILIC, Waters ACQUITY UPLC BEH Amide, 100 × 2.1 mm, 1.7 µm; A: water + 0.125% formic acid + 10 mM ammonium formate; B: 5% water + 95% acetonitrile + 0.125% formic acid + 10 mM ammonium formate; gradient (min/%B) 0/100 2/100 7.7/70 9.5/40 10.25/30 12.75/100 17/100
Details: stereoisomer not certain

| Structure (SMILES) | LC retention time |
| --- | --- |
| Cc1nc2n(c(=O)c1CCN1CCC(c3noc4cc(F)ccc34)CC1)CCCC2 [Risperidone] | 3.52 min |
| CC(C)c1nc(CN(C)C(=O)NC(C(=O)NC(Cc2ccccc2)CC(O)C(Cc2ccccc2)NC(=O)OCc2cncs2)C(C)C)cs1 (stereo unspecified) [Ritonavir] | 1.15 min |
| CN(C)CCc1c[nH]c2ccc(Cn3cncn3)cc12 [Rizatriptan] | 5.11 min |
| CS(=O)(=O)c1ccc(C2=C(c3ccccc3)C(=O)OC2)cc1 [Rofecoxib] | 0.97 min |
| COc1ccc(C2CNC(=O)C2)cc1OC1CCCC1 (stereo unspecified) [Rolipram] | 1.12 min |
| CCCN1CCCCC1C(=O)Nc1c(C)cccc1C (stereo unspecified) [Ropivacaine] | 2.49 min |
| CN(CCOc1ccc(CC2SC(=O)NC2=O)cc1)c1ccccn1 (stereo unspecified) [Rosigltazone] | 1.24 min |
| CC(=O)OCC(=O)NCCCOc1cccc(CN2CCCCC2)c1 [Roxane] | 3.01 min |
| CN1CCN(c2c(F)cc3c(=O)c(C(=O)O)cn4c3c2SCC4)CC1 [Rufloxacin] | 4.65 min |
| CC1OC(OCC2OC(Oc3c(-c4ccc(O)c(O)c4)oc4cc(O)cc(O)c4c3=O)C(O)C(O)C2O)C(O)C(O)C1O (stereo unspecified) [Rutin] | 6.6 min |
| Nc1ncnc2c1ncn2C1OC(CSCCC(N)C(=O)O)C(O)C1O (stereo unspecified) [S-Adenosyl-homocysteine] | 8.85 min |
| C[S+](CCC(N)C(=O)[O-])CC1OC(n2cnc3c(N)ncnc32)C(O)C1O (stereo unspecified) [S-Adenosyl-methionine] | 9.7 min |
| CN=C(NC)NCCCC(N)C(=O)O (stereo unspecified) [SDMA] | 8.49 min |
| OCc1ccccc1OC1OC(CO)C(O)C(O)C1O (stereo unspecified) [Salicin] | 4.48 min |
| OCc1cc(C(O)CNCCCCCCOCCCCc2ccccc2)ccc1O (stereo unspecified) [Salmeterol] | 4.75 min |
| CC(C)(C)NC(=O)C1CC2CCCCC2CN1CC(O)C(Cc1ccccc1)NC(=O)C(CC(N)=O)NC(=O)c1ccc2ccccc2n1 (stereo unspecified) [Saquinavir] | 2.85 min |
| CNCC(=O)O [Sarcosine] | 7.82 min |
| CN1C2CC(OC(=O)C(CO)c3ccccc3)CC1C1OC12 (stereo unspecified) [Scopolamine] | 3.75 min |
| COc1cc2ccc(=O)oc2cc1O [Scopoletin] | 1.16 min |
| Cc1ncc([N+](=O)[O-])n1CC(C)O (stereo unspecified) [Secnidazole] | 1.12 min |
| C#CCN(C)C(C)Cc1ccccc1 (stereo unspecified) [Selegiline] | 1.5 min |
| NC(CO)C(=O)O (stereo unspecified) [Serine] | 8.73 min |
| NCCc1c[nH]c2ccc(O)cc12 [Serotonin] | 1.44 min |

| Structure (SMILES) | LC retention time |
| --- | --- |
| CNC1CCC(c2ccc(Cl)c(Cl)c2)c2ccccc21 (stereo unspecified) [Sertraline] | 2.74 min |
| CC(C)CC(N(C)C)C1(c2ccc(Cl)cc2)CCC1 (stereo unspecified) [Sibutramine] | 1.86 min |
| COc1cc(C=CC(=O)O)cc(OC)c1O [Sinapic acid] | 1.41 min |
| O=P(O)(O)OCC(O)C(O)C(O)C(O)CO (stereo unspecified) [Sorbitol-6-phosphate] | 9.75 min |
| CC(C)NCC(O)c1ccc(NS(C)(=O)=O)cc1 (stereo unspecified) [Sotalol] | 4.87 min |
| NCCCCNCCCN [Spermidine] | 6.98 min |
| NCCCNCCCCNCCCN [Spermine] | 7.24 min |
| C[N+]1(C)CCCC1C(=O)[O-] (stereo unspecified) [Stachydrine] | 7.1 min |
| CC12Cc3cn[nH]c3CC1CCC1C2CCC2(C)C1CCC2(C)O (stereo unspecified) [Stanozolol] | 1.19 min |
| Cc1cn(C2C=CC(CO)O2)c(=O)[nH]c1=O (stereo unspecified) [Stavudine] | 1.62 min |
| CCCCCCCCCCCCCCCCCC(=O)OC(CC(=O)[O-])C[N+](C)(C)C [Stearoyl-L-carnitine] | 2.96 min |
| C=Cc1ccccc1 [Styrene] | 8.74 min |
| O=C(O)CCC(=O)O [Succinic acid] | 4.46 min |
| OCC1OC(OC2(CO)OC(CO)C(O)C2O)C(O)C(O)C1O (stereo unspecified) [Sucrose] | 8.05 min |
| O=C(O)c1cc(N=Nc2ccc(S(=O)(=O)Nc3ccccn3)cc2)ccc1O [Sulfasalazine] | 2.01 min |
| CS(=O)CCCCN=C=S (stereo unspecified) [Sulforaphane] | 1.14 min |
| CNS(=O)(=O)Cc1ccc2[nH]cc(CCN(C)C)c2c1 [Sumatriptan] | 4.31 min |
| CNCC(O)c1ccc(O)cc1 (stereo unspecified) [Synephrine] | 5.67 min |
| COc1cc(-c2oc3cc(O)cc(O)c3c(=O)c2OC2OC(CO)C(O)C(O)C2O)cc(OC)c1O (stereo unspecified) [Syringetin-3-O-glucoside] | 4.32 min |
| COc1cc(C(=O)O)cc(OC)c1O [Syringic acid] | 1.35 min |
| O=S(=O)(O)CCNC(CO)(CO)CO [TES] | 7.7 min |
| Nc1c2c(nc3ccccc13)CCCC2 [Tacrine] | 3.86 min |
| C=CCC1C=C(C)CC(C)CC(OC)C2OC(O)(C(=O)C(=O)N3CCCCC3C(=O)OC(C(C)=CC3CCC(O)C(OC)C3)C(C)C(O)CC1=O)C(C)CC2OC (stereo unspecified) [Tacrolimus] | 1.07 min |

| Structure (SMILES) | LC retention time |
| --- | --- |
| CN1CC(=O)N2C(Cc3c([nH]c4ccccc34)C2c2ccc3c(c2)OCO3)C1=O (stereo unspecified) [Taldalafil] | 1.19 min |
| CN=C(N)NCCCC(N)C(=O)O (stereo unspecified) [Targinine] | 9.22 min |
| NCCS(=O)(=O)O [Taurine] | 7.85 min |
| CC(CCC(=O)NCCS(=O)(=O)O)C1CCC2C3C(O)CC4CC(O)CCC4(C)C3CC(O)C12C (stereo unspecified) [Taurocholic acid] | 6.12 min |
| O=C1c2c(O)cc(O)cc2OC(c2ccc(O)c(O)c2)C1O (stereo unspecified) [Taxifolin] | 1.78 min |
| O=c1[nH]c(=O)n(C2CCCO2)cc1F (stereo unspecified) [Tegafur] | 1.22 min |
| CCCCCN=C(N)NN=Cc1c[nH]c2ccc(OC)cc12 [Tegaserod] | 2.84 min |
| CCCc1nc2c(C)cc(-c3nc4ccccc4n3C)cc2n1Cc1ccc(-c2ccccc2C(=O)O)cc1 [Telmisartan] | 1.25 min |
| CN1C(=O)C(O)N=C(c2ccccc2)c2cc(Cl)ccc21 (stereo unspecified) [Temazepam] | 1.15 min |
| Cn1nnc2c(C(N)=O)ncn2c1=O [Temozolomide] | 1.33 min |
| COc1cc2nc(N3CCN(C(=O)C4CCCO4)CC3)nc(N)c2cc1OC (stereo unspecified) [Terazosin] | 4.66 min |
| CN(CC=CC#CC(C)(C)C)Cc1cccc2ccccc12 [Terbinafine] | 1.33 min |
| CC12CCC(=O)C=C1CCC1C2CCC2(C)C(O)CCC12 (stereo unspecified) [Testosterone] | 1.05 min |
| CCNC(=O)CCC(N)C(=O)O (stereo unspecified) [Theanine] | 7.66 min |
| Cn1c(=O)c2[nH]cnc2n(C)c1=O [Theophylline] | 1.54 min |
| O=C(O)C1CSCN1 (stereo unspecified) [Thiazolidine-4-carboxylic acid] | 6.92 min |
| N=c1ccc2nc3ccc(N)cc3sc-2c1 [Thionin] | 5.23 min |
| CC(NC(=O)C(N)C(C)O)C(=O)O (stereo unspecified) [Thr-Ala] | 8.56 min |
| OCC(O)C(O)CO (stereo unspecified) [Threitol] | 1.56 min |
| Cc1cn(C2CC(O)C(CO)O2)c(=O)[nH]c1=O (stereo unspecified) [Thymidine] | 2.57 min |
| Cc1ccc(C(C)C)c(O)c1 [Thymol] | 1.53 min |
| Cc1ccsc1C(=CCCN1CCCC(C(=O)O)C1)c1sccc1C (stereo unspecified) [Tiagabine] | 3.94 min |
| C#CC1(O)CCC2C3C(C)CC4=C(CCC(=O)C4)C3CCC21C (stereo unspecified) [Tibolone] | 1 min |

| Structure (SMILES) | LC retention time |
| --- | --- |
| Clc1ccccc1CN1CCc2sccc2C1 [Ticlopidine] | 1.12 min |
| CCS(=O)(=O)CCn1c([N+](=O)[O-])cnc1C [Tinidazole] | 1.04 min |
| Cc1cccc(C)c1NC(=O)C(C)N (stereo unspecified) [Tocainide] | 4.97 min |
| Cc1ccc(O)c(C(CCN(C(C)C)C(C)C)c2ccccc2)c1 (stereo unspecified) [Tolterodine] | 2.13 min |
| CCCc1c(OCCCCc2nn[nH]n2)ccc(C(C)=O)c1O [Tomelukast] | 1.04 min |
| CC1(C)OC2COC3(COS(N)(=O)=O)OC(C)(C)OC3C2O1 (stereo unspecified) [Topiramate] | 1.1 min |
| CCC1(O)C(=O)OCc2c1cc1n(c2=O)Cc2cc3c(CN(C)C)c(O)ccc3nc2-1 (stereo unspecified) [Topotecan] | 5.72 min |
| O=C(c1ccccc1)c1ccc2n1CCC2C(=O)O (stereo unspecified) [Toradol] | 1.29 min |
| Cc1cccc(Nc2ccncc2S(=O)(=O)NC(=O)NC(C)C)c1 [Torasemide] | 1.45 min |
| CN(C)CCOc1ccc(C(=C(CCCl)c2ccccc2)c2ccccc2)cc1 [Toremifene] | 1.89 min |
| NC1CCN(c2nc3c(cc2F)c(=O)c(C(=O)O)cn3-c2ccc(F)cc2F)C1 (stereo unspecified) [Tosufloxacin] | 4.87 min |
| COc1cccc(C2(O)CCCCC2CN(C)C)c1 (stereo unspecified) [Tramadol] | 2.52 min |
| COc1ccc(C=CC(=O)Nc2ccccc2C(=O)O)cc1OC [Tranilast] | 1.26 min |
| O=c1n(CCCN2CCN(c3cccc(Cl)c3)CC2)nc2ccccn12 [Trazodone] | 2.38 min |
| O=P(O)(O)OCC1OC(OC2OC(CO)C(O)C(O)C2O)C(O)C(O)C1O (stereo unspecified) [Trehalose-6-phosphate] | 9.72 min |
| O=C(OC1C(Oc2ccccc2COC(=O)C2(O)C=CCCC2=O)OC(CO)C(O)C1O)c1ccccc1 (stereo unspecified) [Tremulacin] | 1.51 min |
| Cc1nnc2n1-c1ccc(Cl)cc1C(c1ccccc1Cl)=NC2 [Triazolam] | 1.3 min |
| CSc1nc2cc(Oc3cccc(Cl)c3Cl)c(Cl)cc2[nH]1 [Triclabendazole] | 1.01 min |
| CN1CCN(CCCN2c3ccccc3Sc3ccc(C(F)(F)F)cc32)CC1 [Trifluoperazine] | 2.15 min |
| NC(=O)N1c2ccccc2CC(=O)c2ccccc21 [Trileptal] | 1.13 min |
| CCC(COC(=O)c1cc(OC)c(OC)c(OC)c1)(c1ccccc1)N(C)C (stereo unspecified) [Trimebutine] | 1.47 min |
| CC(CN(C)C)CN1c2ccccc2CCc2ccccc21 (stereo unspecified) [Trimipramine] | 2.25 min |
